Data from ChEMBL document CHEMBL4382202, “1-(2-Hydroxybenzoyl)-thiosemicarbazides are promising antimicrobial agents targeting d-alanine-d-alanine ligase in bacterio” (Eur J Med Chem, 2018).
Active and inactive are the calls of the source. The rule behind the calls is not given here.

Columns and labels:
[1] = target: T1, D-alanine--D-alanine ligase (Enterococcus faecalis (strain ATCC 700802 / V583)) (UniProt Q47758); experiment: Inhibition of Enterococcus faecalis JH2-2 C-terminal 6His-tagged DdlB expressed in Escherichia coli LMG194 at 10 uM preincubated for 30 mins followed by substrate addition and measured after 20 mins by Biomol Green reagent assay relative to control
T1 sequence (whole entry): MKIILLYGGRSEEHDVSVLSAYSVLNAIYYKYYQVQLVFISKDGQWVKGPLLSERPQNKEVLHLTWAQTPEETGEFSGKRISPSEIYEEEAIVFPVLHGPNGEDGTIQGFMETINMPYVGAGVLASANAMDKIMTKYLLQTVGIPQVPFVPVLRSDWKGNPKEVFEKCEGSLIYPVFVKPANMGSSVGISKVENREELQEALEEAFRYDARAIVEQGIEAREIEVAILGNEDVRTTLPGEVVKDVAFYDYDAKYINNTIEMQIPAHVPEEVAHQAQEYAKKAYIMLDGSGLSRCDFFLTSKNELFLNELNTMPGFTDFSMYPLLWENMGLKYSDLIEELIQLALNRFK

[2] = target: T1, D-alanine--D-alanine ligase (Enterococcus faecalis (strain ATCC 700802 / V583)); experiment: Inhibition of Enterococcus faecalis JH2-2 C-terminal 6His-tagged DdlB expressed in Escherichia coli LMG194 assessed as residual activity at 10 uM preincubated for 30 mins followed by substrate addition and measured after 20 mins by Biomol Green reagent assay relative to control
[3] = system: Klebsiella pneumoniae; experiment: Antibacterial activity against Klebsiella pneumoniae ATCC 700603 after 18 to 24 hrs by microdilution assay; type: functional, organism-based
[4] = system: Pseudomonas aeruginosa; experiment: Antibacterial activity against Pseudomonas aeruginosa PAO1 after 18 to 24 hrs by microdilution assay; type: functional, organism-based
[5] = system: Escherichia coli; experiment: Antibacterial activity against Escherichia coli ATCC 25922 after 18 to 24 hrs by microdilution assay; type: functional, organism-based
[6] = target: T1, D-alanine--D-alanine ligase (Enterococcus faecalis (strain ATCC 700802 / V583)); experiment: Inhibition of Enterococcus faecalis JH2-2 C-terminal 6His-tagged DdlB expressed in Escherichia coli LMG194 at IC50 after 90 mins by Biomol Green reagent assay relative to control
[7] = target: T1, D-alanine--D-alanine ligase (Enterococcus faecalis (strain ATCC 700802 / V583)); experiment: Inhibition of Enterococcus faecalis JH2-2 C-terminal 6His-tagged DdlB expressed in Escherichia coli LMG194 preincubated for 30 mins followed by substrate addition and measured after 20 mins in presence of 0.01% Triton X-100 by Biomol Green reagent assay
[8] = target: T1, D-alanine--D-alanine ligase (Enterococcus faecalis (strain ATCC 700802 / V583)); experiment: Inhibition of Enterococcus faecalis JH2-2 C-terminal 6His-tagged DdlB expressed in Escherichia coli LMG194 at IC50 after 10 mins by Biomol Green reagent assay relative to control

Row | Activity [2] [%] | SMILES | inhibition [1] [%] | further results
1 |  | COc1ccccc1NC(=S)NNC(=O)c1ccccc1O | > 30 | 
2 | 100 | O=C(NNC(=S)Nc1ccc(Cl)c(Cl)c1)c1ccc(F)cc1 |  | 
3 | 100 | O=C(NNC(=S)Nc1ccc(Cl)c(Cl)c1)c1ccc(O)cc1 |  | 
4 |  | O=C(NNC(=S)Nc1ccccc1Cl)c1ccccc1O | > 30 | MIC [3]: inactive; MIC [4]: inactive; MIC [5]: inactive
5 |  | O=C(NNC(=S)Nc1ccccc1F)c1ccccc1O | > 30 | 
6 | 100 | O=C(NNC(=S)Nc1ccccc1F)c1ccccc1 |  | 
7 | 100 | O=C(NNC(=S)Nc1ccccc1Cl)c1ccccc1 |  | 
8 |  | O=C(NNC(=S)Nc1cccnc1)c1ccccc1O | 30 | 
9 |  | O=C(NNC(=S)Nc1cccc(F)c1)c1ccccc1O | > 30 | 
10 | 100 | O=C(NNC(=S)Nc1ccc(Cl)c(Cl)c1)c1cccc(F)c1 |  | 
11 |  | O=C(NNC(=S)NCCCN1CCOCC1)c1ccccc1O | 30 | 
12 |  | O=C(NNC(=S)Nc1ccc(OC(F)(F)F)cc1)c1ccccc1O | > 30 | MIC [3]: inactive; MIC [4]: inactive; MIC [5]: inactive
13 | 100 | O=C(NNC(=S)Nc1ccc(Cl)cc1)c1ccccc1 |  | 
14 |  | O=C(NNC(=S)Nc1ccc(Cl)c(Cl)c1)c1ccc(I)cc1O | > 30 | 
15 |  | O=C(NNC(=S)Nc1ccc(F)cc1)c1ccccc1O | > 30 | 
16 |  | O=C(NNC(=S)Nc1ccc(Cl)c(Cl)c1)c1cc2ccccc2cc1O | > 30 | 
17 |  | O=C(NNC(=S)Nc1cccc(I)c1)c1ccccc1O | > 30 | 
18 |  | N#Cc1ccc(NC(=S)NNC(=O)c2ccccc2O)cc1 | > 30 | 
19 | 100 | O=C(NNC(=S)Nc1ccc(Cl)c(Cl)c1)c1ccccc1F |  | 
20 |  | O=C(NNC(=S)Nc1ccc(OCc2ccccc2)cc1)c1ccccc1O | > 30 | 

Row | Activity [2] [%] | SMILES | inhibition [1] [%] | further results
21 | 100 | O=C(NNC(=S)Nc1ccc(Cl)c(Cl)c1)c1ccccc1 |  | 
22 |  | O=C(NNC(=S)Nc1cccc2ccccc12)c1ccccc1O | > 30 | 
23 |  | CCCCCNC(=S)NNC(=O)c1ccccc1O | > 30 | 
24 | 100 | O=C(NNC(=O)c1ccccc1O)Nc1ccc(Cl)c(Cl)c1 |  | 
25 |  | CC(=O)c1ccc(NC(=S)NNC(=O)c2ccccc2O)cc1 | > 30 | 
26 | 100 | O=C(NNC(=S)Nc1ccc([N+](=O)[O-])cc1)c1ccc(O)cc1 |  | 
27 |  | O=C(NNC(=S)Nc1cccc(Cl)c1)c1ccccc1O | > 30 | MIC [3]: inactive; MIC [4]: inactive; MIC [5]: inactive
28 |  | O=C(NNC(=S)Nc1ccc(Cl)cc1Cl)c1ccccc1O | > 30 | MIC [3]: inactive; MIC [4]: inactive; MIC [5]: inactive
29 | 100 | O=C(NNC(=O)c1ccccc1)Nc1ccc(Cl)c(Cl)c1 |  | 
30 |  | O=C(NNC(=S)Nc1ccc(Cl)cc1)c1ccccc1O | > 30 | 
31 |  | N[C@@H]1CONC1=O | > 30 | 
32 | 100 | COc1ccccc1C(=O)NNC(=S)Nc1ccc(Cl)c(Cl)c1 |  | 
33 |  | COc1ccc(NC(=S)NNC(=O)c2ccccc2O)cc1 | > 30 | 
34 | 100 | O=C(NNC(=S)Nc1cccc(F)c1)c1ccccc1 |  | 
35 | 100 | O=C(NNC(=S)Nc1ccc(Cl)c(Cl)c1)c1cccc(O)c1 |  | 
36 |  | Nc1ccc(C(=O)NNC(=S)Nc2ccc(Cl)c(Cl)c2)c(O)c1 | > 30 | 
37 | 100 | O=C(NNC(=S)Nc1cccc(Cl)c1)c1ccccc1 |  | 
38 | 100 | O=c1c2ccccc2ncn1NC(=S)Nc1ccccc1 |  | 
39 |  | O=C(NNC(=S)Nc1ccccc1)c1ccccc1O | > 30 | inhibition [6]: > 90%; inhibition [7]: Active; inhibition [8]: 60%
40 | 100 | O=C(NNC(=S)Nc1ccc(F)cc1)c1ccccc1 |  | 
